Experimental data taken from US20200038314A1, “PROCESS FOR PREVENTING OR SLOWING THE APPEARANCE OF UNATTRACTIVE SIGNS, GENERATED BY POLLUTANTS PRESENT IN THE ATMOSPHERE, ON THE SKIN, THE SCALP, THE HAIR OR THE MUCOUS MEMBRANES” (SOCIETE D'EXPLOITATION DE PRODUITS POUR LES INDUSTRIES …, priority 2016, published 2020).

Experiments:
Assay type in all cases: cell-based
[1] = test system: cytokine IL-1α; test: assay for the cytokine IL-1α in cadmium-exposed keratinocyte culture; settings: human keratinocytes, product 24 h then cadmium 35 μM 24 h; sulforaphane at 1 μM, Extract A at 0.5%
Description: (§1) Principle of the evaluation: evaluation of the effects of an exposure to cadmium on a keratinocyte culture.
(§2) Protocol: Human keratinocytes are cultured in a 96-well culture plate. After a few days of culture, the products evaluated, namely the Extract A at 0.5% by weight and sulforaphane (a positive reference known to those skilled in the art), are applied in the culture medium. At the end of incubation for 24 hours, the cells are exposed to a solution of cadmium at 35 μM for 24 hours, then 24 hours later, the following various evaluations are carried out: • evaluation of the cell viability by means of a DNA assay by the Hoechst method • evaluation of the cell metabolism by means of a protein assay by the BCA method; • evaluation of the inflammatory component by means of an assay for the cytokines IL-1a and IL-8.

[2] = test system: Human keratinocytes; test: DNA assay by the Hoechst method on cadmium-exposed keratinocyte culture; settings: product 24 h then cadmium 35 μM 24 h, sulforaphane at 1 μM, Extract A at 0.5%
Description: as §1, §2

[3] = test system: Human keratinocytes; test: protein assay by the BCA method on cadmium-exposed keratinocyte culture; settings: product 24 h then cadmium 35 μM 24 h, sulforaphane at 1 μM, Extract A at 0.5%
Description: as §1, §2

[4] = test system: cytokine IL-8; test: assay for the cytokine IL-8 in cadmium-exposed keratinocyte culture; settings: human keratinocytes, product 24 h then cadmium 35 μM 24 h; sulforaphane at 1 μM, Extract A at 0.5%
Description: as §1, §2

C[S+]([O-])CCCCN=C=S (stereo not shown) [sulforaphane]
Mean values of IL-1α expressed [1]: 0.8238 pg/μg of proteins | Mean values of the expressed DNA [2]: 6.7 µg/mL | Mean values of the expressed proteins [3]: 156.7 µg/mL | Mean values of IL-8 expressed [4]: 3.7081 pg/μg of proteins
